Test results taken from the NIST ThermoML archive (doi:10.1016/j.jct.2011.02.008).
± gives the expanded uncertainty stated by the source.

Settings: Liquid, Vibrating tube method

COC(=O)c1ccccc1 [methyl benzoate]
mass density [kg/m3]
Settings | 278.15 K | 288.15 K | 298.15 K | 308.15 K | 318.15 K | 328.15 K | 338.15 K | 348.15 K | 358.15 K
100 kPa | 1101.5 ± 2.4 | 1092.1 ± 2.4 | 1082.7 ± 2.4 | 1073 ± 2.4 | 1063.3 ± 2.4 | 1053.6 ± 2.4 | 1044.1 ± 2.4 | 1034.4 ± 2.4 | 1024.9 ± 2.4
1000 kPa | 1102.1 ± 2.4 | 1092.6 ± 2.4 | 1083.2 ± 2.4 | 1073.6 ± 2.4 | 1063.8 ± 2.4 | 1054.3 ± 2.4 | 1044.8 ± 2.4 | 1035.1 ± 2.4 | 1025.6 ± 2.4
5000 kPa | 1104.4 ± 2.4 | 1095 ± 2.4 | 1085.8 ± 2.4 | 1076.2 ± 2.4 | 1066.7 ± 2.4 | 1057.2 ± 2.4 | 1048 ± 2.4 | 1038.4 ± 2.4 | 1029.1 ± 2.4
10000 kPa | 1107.2 ± 2.4 | 1097.9 ± 2.4 | 1089 ± 2.4 | 1079.5 ± 2.4 | 1070.1 ± 2.4 | 1060.8 ± 2.4 | 1051.7 ± 2.4 | 1042.4 ± 2.4 | 1033.3 ± 2.4
15000 kPa | 1109.9 ± 2.4 | 1100.8 ± 2.4 | 1091.8 ± 2.4 | 1082.6 ± 2.4 | 1073.4 ± 2.4 | 1064.3 ± 2.4 | 1055.3 ± 2.4 | 1046.2 ± 2.4 | 1037.3 ± 2.4
20000 kPa | 1112.6 ± 2.4 | 1103.6 ± 2.4 | 1094.8 ± 2.4 | 1085.7 ± 2.4 | 1076.6 ± 2.4 | 1067.6 ± 2.4 | 1058.8 ± 2.4 | 1049.8 ± 2.4 | 1041.2 ± 2.4
25000 kPa | 1115.2 ± 2.4 | 1106.3 ± 2.4 | 1097.6 ± 2.4 | 1088.6 ± 2.4 | 1079.7 ± 2.4 | 1070.9 ± 2.4 | 1062.2 ± 2.4 | 1053.4 ± 2.4 | 1044.9 ± 2.4
30000 kPa | 1117.7 ± 2.4 | 1109 ± 2.4 | 1100.4 ± 2.4 | 1091.5 ± 2.4 | 1082.8 ± 2.4 | 1074 ± 2.4 | 1065.5 ± 2.4 | 1056.9 ± 2.4 | 1048.5 ± 2.4
35000 kPa | 1120.2 ± 2.4 | 1111.6 ± 2.4 | 1103.1 ± 2.4 | 1094.3 ± 2.4 | 1085.7 ± 2.4 | 1077.1 ± 2.4 | 1068.8 ± 2.4 | 1060.3 ± 2.4 | 1052 ± 2.4
40000 kPa | 1122.7 ± 2.4 | 1114.1 ± 2.4 | 1105.7 ± 2.4 | 1097.1 ± 2.4 | 1088.6 ± 2.4 | 1080.1 ± 2.4 | 1071.9 ± 2.4 | 1063.5 ± 2.4 | 1055.4 ± 2.4
45000 kPa | 1125.1 ± 2.4 | 1116.6 ± 2.4 | 1108.3 ± 2.4 | 1099.8 ± 2.4 | 1091.4 ± 2.4 | 1083 ± 2.4 | 1074.9 ± 2.4 | 1066.7 ± 2.4 | 1058.7 ± 2.4
50000 kPa | 1127.4 ± 2.4 | 1119.1 ± 2.4 | 1110.9 ± 2.4 | 1102.4 ± 2.4 | 1094.1 ± 2.4 | 1085.9 ± 2.4 | 1077.9 ± 2.4 | 1069.8 ± 2.4 | 1061.9 ± 2.4
55000 kPa | 1129.7 ± 2.4 | 1121.4 ± 2.4 | 1113.4 ± 2.4 | 1105 ± 2.4 | 1096.8 ± 2.4 | 1088.7 ± 2.4 | 1080.8 ± 2.4 | 1072.8 ± 2.4 | 1065.1 ± 2.4
60000 kPa | 1131.8 ± 2.4 | 1123.6 ± 2.4 | 1115.6 ± 2.4 | 1107.4 ± 2.4 | 1099.3 ± 2.4 | 1091.2 ± 2.4 | 1083.5 ± 2.4 | 1075.5 ± 2.4 | 1067.9 ± 2.4

CCCCCCO [hexan-1-ol]
mass density [kg/m3]
Settings | 278.15 K | 288.15 K | 298.15 K | 308.15 K | 318.15 K | 328.15 K | 338.15 K | 348.15 K | 358.15 K
100 kPa | 828.9 ± 2.4 | 822.1 ± 2.4 | 814.9 ± 2.4 | 807.8 ± 2.4 | 800.5 ± 2.4 | 793 ± 2.4 | 785.4 ± 2.4 | 777.6 ± 2.4 | 769.4 ± 2.4
1000 kPa | 829.5 ± 2.4 | 822.7 ± 2.4 | 815.6 ± 2.4 | 808.4 ± 2.4 | 801.2 ± 2.4 | 793.7 ± 2.4 | 786.2 ± 2.4 | 778.4 ± 2.4 | 770 ± 2.4
5000 kPa | 832 ± 2.4 | 825.3 ± 2.4 | 818.4 ± 2.4 | 811.4 ± 2.4 | 804.3 ± 2.4 | 797 ± 2.4 | 789.6 ± 2.4 | 782 ± 2.4 | 774.2 ± 2.4
10000 kPa | 835 ± 2.4 | 828.5 ± 2.4 | 821.7 ± 2.4 | 814.8 ± 2.4 | 807.9 ± 2.4 | 800.8 ± 2.4 | 793.6 ± 2.4 | 786.2 ± 2.4 | 778.6 ± 2.4
15000 kPa | 838 ± 2.4 | 831.6 ± 2.4 | 824.9 ± 2.4 | 818.2 ± 2.4 | 811.4 ± 2.4 | 804.4 ± 2.4 | 797.4 ± 2.4 | 790.2 ± 2.4 | 782.8 ± 2.4
20000 kPa | 840.8 ± 2.4 | 834.6 ± 2.4 | 828 ± 2.4 | 821.4 ± 2.4 | 814.7 ± 2.4 | 807.9 ± 2.4 | 801 ± 2.4 | 794.1 ± 2.4 | 786.9 ± 2.4
25000 kPa | 843.6 ± 2.4 | 837.4 ± 2.4 | 830.9 ± 2.4 | 824.5 ± 2.4 | 817.9 ± 2.4 | 811.2 ± 2.4 | 804.5 ± 2.4 | 797.6 ± 2.4 | 790.7 ± 2.4
30000 kPa | 846.3 ± 2.4 | 840.2 ± 2.4 | 833.8 ± 2.4 | 827.5 ± 2.4 | 821 ± 2.4 | 814.4 ± 2.4 | 807.9 ± 2.4 | 801.2 ± 2.4 | 794.3 ± 2.4
35000 kPa | 848.9 ± 2.4 | 842.9 ± 2.4 | 836.6 ± 2.4 | 830.3 ± 2.4 | 824 ± 2.4 | 817.6 ± 2.4 | 811.1 ± 2.4 | 804.6 ± 2.4 | 797.9 ± 2.4
40000 kPa | 851.4 ± 2.4 | 845.5 ± 2.4 | 839.4 ± 2.4 | 833.2 ± 2.4 | 826.9 ± 2.4 | 820.6 ± 2.4 | 814.2 ± 2.4 | 807.8 ± 2.4 | 801.3 ± 2.4
45000 kPa | 853.9 ± 2.4 | 848 ± 2.4 | 842 ± 2.4 | 835.9 ± 2.4 | 829.7 ± 2.4 | 823.5 ± 2.4 | 817.3 ± 2.4 | 811 ± 2.4 | 804.6 ± 2.4
50000 kPa | 856.3 ± 2.4 | 850.5 ± 2.4 | 844.6 ± 2.4 | 838.5 ± 2.4 | 832.4 ± 2.4 | 826.4 ± 2.4 | 820.2 ± 2.4 | 814 ± 2.4 | 807.7 ± 2.4
55000 kPa | 858.7 ± 2.4 | 853 ± 2.4 | 847.1 ± 2.4 | 841.1 ± 2.4 | 835.1 ± 2.4 | 829.1 ± 2.4 | 823.1 ± 2.4 | 817 ± 2.4 | 810.8 ± 2.4
60000 kPa | 860.9 ± 2.4 | 855.4 ± 2.4 | 849.6 ± 2.4 | 843.5 ± 2.4 | 837.7 ± 2.4 | 831.6 ± 2.4 | 825.7 ± 2.4 | 819.7 ± 2.4 | 813.5 ± 2.5
